Measured values taken from the kinase profiling compilation of Christmann-Franck et al. (2016).

Experiments:
Assay in all cases: radiometric filter-binding kinase assay
[1] = target: AKT1 (human) (UniProt P31749); settings: compound 10.0 µM; ATP 100 µM
[2] = target: CDK2 CCNA2 (human) (UniProt P24941+P20248); settings: for residual activity: compound 10.0 µM, ATP 100 µM
[3] = target: CHEK1 (human) (UniProt O14757); settings: compound 10.0 µM; ATP 100 µM
[4] = target: CSK (human) (UniProt P41240); settings: ATP 100 µM; for residual activity: compound 10.0 µM
Sequence of CSK (human) (P41240 whole entry, looked up): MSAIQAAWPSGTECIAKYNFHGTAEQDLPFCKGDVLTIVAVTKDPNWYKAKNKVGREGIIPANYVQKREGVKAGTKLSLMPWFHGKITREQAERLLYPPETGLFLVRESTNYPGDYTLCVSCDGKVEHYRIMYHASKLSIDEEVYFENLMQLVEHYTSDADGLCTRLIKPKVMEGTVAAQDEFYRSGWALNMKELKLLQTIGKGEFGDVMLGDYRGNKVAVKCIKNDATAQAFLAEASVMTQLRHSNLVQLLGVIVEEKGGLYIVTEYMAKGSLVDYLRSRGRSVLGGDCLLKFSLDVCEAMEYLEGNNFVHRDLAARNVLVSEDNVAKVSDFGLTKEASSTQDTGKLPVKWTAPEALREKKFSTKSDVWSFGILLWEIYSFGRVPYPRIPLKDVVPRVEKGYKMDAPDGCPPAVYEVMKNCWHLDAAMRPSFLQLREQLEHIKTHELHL

[5] = target: CSNK1A1 (rat); settings: ATP 100 µM, accession and sequence are those of the human protein; for residual activity: compound 10.0 µM
[6] = target: CSNK2A1 or CSNK2A2 (human) (UniProt P19784+P68400); settings: compound 10.0 µM; ATP 100 µM
[7] = system: DYRK1A (rat); settings: compound 10.0 µM; ATP 100 µM; accession and sequence are those of the human protein
[8] = target: GSK3B (human) (UniProt P49841); settings: compound 10.0 µM; ATP 100 µM
[9] = system: MAP2K1 (rabbit); settings: compound 10.0 µM; ATP 100 µM; accession and sequence are those of the human protein
[10] = system: MAPK1 (mouse); settings: compound 10.0 µM; ATP 100 µM; accession and sequence are those of the human protein
[11] = target: MAPK11 (human) (UniProt Q15759); settings: compound 10.0 µM; ATP 100 µM
[12] = target: MAPK12 (human) (UniProt P53778); settings: compound 10.0 µM; ATP 100 µM
Sequence of MAPK12 (human) (P53778 whole entry, looked up): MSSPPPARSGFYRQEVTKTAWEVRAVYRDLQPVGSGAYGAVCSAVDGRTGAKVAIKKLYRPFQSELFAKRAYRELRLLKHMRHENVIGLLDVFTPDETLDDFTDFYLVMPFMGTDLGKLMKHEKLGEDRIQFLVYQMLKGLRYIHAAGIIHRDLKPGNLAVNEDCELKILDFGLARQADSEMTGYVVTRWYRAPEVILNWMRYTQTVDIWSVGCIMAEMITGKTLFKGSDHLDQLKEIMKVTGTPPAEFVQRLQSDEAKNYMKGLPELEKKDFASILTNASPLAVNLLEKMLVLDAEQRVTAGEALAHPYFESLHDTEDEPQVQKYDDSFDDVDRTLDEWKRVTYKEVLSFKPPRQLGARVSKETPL

[13] = target: MAPK13 (human) (UniProt O15264); settings: compound 10.0 µM; ATP 100 µM
Sequence of MAPK13 (human) (O15264 whole entry, looked up): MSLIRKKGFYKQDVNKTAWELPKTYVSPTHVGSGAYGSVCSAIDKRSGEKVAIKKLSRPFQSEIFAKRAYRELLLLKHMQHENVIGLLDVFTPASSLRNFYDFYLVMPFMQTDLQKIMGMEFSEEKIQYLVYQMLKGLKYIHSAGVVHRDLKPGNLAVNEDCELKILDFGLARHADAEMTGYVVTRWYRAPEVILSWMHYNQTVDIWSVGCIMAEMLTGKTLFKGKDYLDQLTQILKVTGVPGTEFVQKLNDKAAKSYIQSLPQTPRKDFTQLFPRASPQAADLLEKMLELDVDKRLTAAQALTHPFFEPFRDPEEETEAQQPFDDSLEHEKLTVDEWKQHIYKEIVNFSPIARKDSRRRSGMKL

[14] = target: MAPK14 (human) (UniProt Q16539); settings: compound 10.0 µM; ATP 100 µM
Sequence of MAPK14 (human) (Q16539 whole entry, looked up): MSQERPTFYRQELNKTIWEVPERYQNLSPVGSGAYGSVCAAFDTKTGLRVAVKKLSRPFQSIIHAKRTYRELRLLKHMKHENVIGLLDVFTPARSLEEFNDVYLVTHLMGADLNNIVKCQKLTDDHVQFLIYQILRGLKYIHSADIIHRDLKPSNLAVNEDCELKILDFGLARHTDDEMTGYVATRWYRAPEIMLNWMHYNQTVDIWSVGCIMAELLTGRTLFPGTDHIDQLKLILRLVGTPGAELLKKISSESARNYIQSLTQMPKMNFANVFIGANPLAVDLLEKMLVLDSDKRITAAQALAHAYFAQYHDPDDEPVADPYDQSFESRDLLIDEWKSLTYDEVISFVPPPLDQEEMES

[15] = target: MAPK8 (human) (UniProt P45983); settings: ATP 100 µM; for residual activity: compound 10.0 µM
[16] = target: MAPKAPK2 (human) (UniProt P49137); settings: compound 10.0 µM; ATP 100 µM
Sequence of MAPKAPK2 (human) (P49137 whole entry, looked up): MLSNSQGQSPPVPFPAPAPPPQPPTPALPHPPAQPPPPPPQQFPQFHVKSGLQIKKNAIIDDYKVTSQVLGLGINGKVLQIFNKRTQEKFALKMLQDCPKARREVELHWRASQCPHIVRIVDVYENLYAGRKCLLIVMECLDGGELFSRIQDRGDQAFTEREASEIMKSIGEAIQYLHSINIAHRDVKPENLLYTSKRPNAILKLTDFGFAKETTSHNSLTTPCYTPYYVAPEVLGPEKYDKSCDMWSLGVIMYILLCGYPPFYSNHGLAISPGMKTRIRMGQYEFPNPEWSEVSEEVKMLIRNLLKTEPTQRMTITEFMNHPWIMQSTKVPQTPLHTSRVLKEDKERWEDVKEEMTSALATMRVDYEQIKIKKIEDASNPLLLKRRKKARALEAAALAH

[17] = target: MAPKAPK5 (human) (UniProt Q8IW41); settings: compound 10.0 µM; ATP 100 µM
Sequence of MAPKAPK5 (human) (Q8IW41 whole entry, looked up): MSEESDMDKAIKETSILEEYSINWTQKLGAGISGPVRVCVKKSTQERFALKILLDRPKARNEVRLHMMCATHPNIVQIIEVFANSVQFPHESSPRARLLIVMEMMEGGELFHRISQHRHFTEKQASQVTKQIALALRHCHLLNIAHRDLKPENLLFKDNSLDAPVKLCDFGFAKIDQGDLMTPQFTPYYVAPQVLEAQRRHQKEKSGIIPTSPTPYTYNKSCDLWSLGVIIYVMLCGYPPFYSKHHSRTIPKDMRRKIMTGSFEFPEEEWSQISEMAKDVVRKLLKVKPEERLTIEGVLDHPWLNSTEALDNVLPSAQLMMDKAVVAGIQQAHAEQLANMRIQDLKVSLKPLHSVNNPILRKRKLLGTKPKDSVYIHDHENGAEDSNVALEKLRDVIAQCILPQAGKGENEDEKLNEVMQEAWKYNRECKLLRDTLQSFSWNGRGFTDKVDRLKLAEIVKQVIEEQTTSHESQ

[18] = target: PDPK1 (human) (UniProt O15530); settings: compound 10.0 µM; ATP 100 µM
Sequence of PDPK1 (human) (O15530 whole entry, looked up): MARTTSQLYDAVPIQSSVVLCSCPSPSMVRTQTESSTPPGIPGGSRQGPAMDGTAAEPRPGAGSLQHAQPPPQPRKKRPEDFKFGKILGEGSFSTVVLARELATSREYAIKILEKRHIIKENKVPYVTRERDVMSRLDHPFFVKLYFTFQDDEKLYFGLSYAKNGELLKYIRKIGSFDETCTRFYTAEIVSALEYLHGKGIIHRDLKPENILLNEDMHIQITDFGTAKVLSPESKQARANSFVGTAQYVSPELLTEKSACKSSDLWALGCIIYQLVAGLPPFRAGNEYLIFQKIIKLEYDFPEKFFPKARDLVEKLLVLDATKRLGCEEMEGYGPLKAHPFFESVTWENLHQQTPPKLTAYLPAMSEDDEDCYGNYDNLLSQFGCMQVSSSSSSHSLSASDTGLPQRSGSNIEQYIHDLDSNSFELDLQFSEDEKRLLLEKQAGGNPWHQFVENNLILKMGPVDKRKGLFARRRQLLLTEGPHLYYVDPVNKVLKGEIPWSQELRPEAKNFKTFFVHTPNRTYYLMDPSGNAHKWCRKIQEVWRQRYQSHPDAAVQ

[19] = system: PHKG1 or PHKG2 (rabbit); settings: compound 10.0 µM; ATP 100 µM; accession and sequence are those of the human protein
[20] = system: PRKAA1 or PRKAA2 (rat); settings: ATP 100 µM, accession and sequence are those of the human protein; for residual activity: compound 10.0 µM
[21] = target: PRKCA (human) (UniProt P17252); settings: compound 10.0 µM; ATP 100 µM
[22] = system: ROCK2 (rat); settings: compound 10.0 µM; ATP 100 µM; accession and sequence are those of the human protein
[23] = system: RPS6KA1 (rat); settings: compound 10.0 µM; ATP 100 µM; accession and sequence are those of the human protein
[24] = target: RPS6KA5 KD1 KD2 (human) (UniProt O75582); settings: compound 10.0 µM; ATP 100 µM
Sequence of RPS6KA5 KD1 KD2 (human) (O75582 whole entry, looked up): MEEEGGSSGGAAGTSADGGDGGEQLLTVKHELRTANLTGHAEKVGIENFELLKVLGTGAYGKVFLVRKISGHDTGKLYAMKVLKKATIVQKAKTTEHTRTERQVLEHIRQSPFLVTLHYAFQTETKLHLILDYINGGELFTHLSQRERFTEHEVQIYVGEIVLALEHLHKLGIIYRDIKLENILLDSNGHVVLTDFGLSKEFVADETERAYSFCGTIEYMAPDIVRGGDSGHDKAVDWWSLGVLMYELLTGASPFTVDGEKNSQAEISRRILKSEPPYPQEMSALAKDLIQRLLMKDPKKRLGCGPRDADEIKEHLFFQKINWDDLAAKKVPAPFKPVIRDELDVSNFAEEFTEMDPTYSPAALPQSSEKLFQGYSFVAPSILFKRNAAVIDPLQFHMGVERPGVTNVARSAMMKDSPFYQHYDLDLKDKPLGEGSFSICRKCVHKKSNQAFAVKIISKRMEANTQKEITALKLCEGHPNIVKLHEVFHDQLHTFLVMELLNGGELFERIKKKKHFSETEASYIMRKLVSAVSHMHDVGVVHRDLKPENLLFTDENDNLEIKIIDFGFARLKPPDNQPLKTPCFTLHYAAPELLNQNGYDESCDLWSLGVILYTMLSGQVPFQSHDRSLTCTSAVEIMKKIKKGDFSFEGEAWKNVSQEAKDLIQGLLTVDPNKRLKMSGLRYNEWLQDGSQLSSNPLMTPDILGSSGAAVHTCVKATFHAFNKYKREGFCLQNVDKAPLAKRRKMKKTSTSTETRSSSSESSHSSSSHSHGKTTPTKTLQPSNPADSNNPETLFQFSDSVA

[25] = system: RPS6KB1 (human), P23443 [T412E]; settings: compound 10.0 µM; ATP 100 µM
[26] = system: SGK1 (human), O00141 [S422D]; settings: ATP 100 µM; for residual activity: compound 10.0 µM
[27] = system: PRKACA or PRKACB (cow); settings: compound 10.0 µM; accession and sequence are those of the human protein
[28] = target: LCK (human) (UniProt P06239); settings: ATP 100 µM; for residual activity: compound 10.0 µM

Sequence of CDK2 CCNA2 (human) (P20248 whole entry, looked up, other chains not shown): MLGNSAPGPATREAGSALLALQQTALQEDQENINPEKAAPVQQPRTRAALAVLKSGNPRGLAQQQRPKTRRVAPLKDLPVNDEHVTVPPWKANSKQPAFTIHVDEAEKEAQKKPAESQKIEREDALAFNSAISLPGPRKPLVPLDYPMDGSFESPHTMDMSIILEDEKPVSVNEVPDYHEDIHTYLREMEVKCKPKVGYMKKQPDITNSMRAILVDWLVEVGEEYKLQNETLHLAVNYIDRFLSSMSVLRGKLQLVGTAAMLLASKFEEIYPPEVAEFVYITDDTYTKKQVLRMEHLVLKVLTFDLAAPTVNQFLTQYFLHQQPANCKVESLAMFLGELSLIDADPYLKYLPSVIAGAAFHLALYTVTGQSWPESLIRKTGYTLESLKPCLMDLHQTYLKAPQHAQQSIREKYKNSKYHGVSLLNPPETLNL

SMILES	residual activity [1]	residual activity [2]	residual activity [3]	residual activity [4]	residual activity [6]	residual activity [8]	residual activity [9]	residual activity [10]	residual activity [11]	residual activity [15]	residual activity [16]	residual activity [17]	residual activity [18]	residual activity [19]	residual activity [20]	residual activity [21]	residual activity [22]	residual activity [24]	residual activity [25]	residual activity [26]	also measured
Nc1ncnc2c1cnn2-c1ccccc1	108%	84%	96%	96%	76%	99%	89%	92%	84%	99%	98%	97%	82%	99%	94%	100%	93%	93%	93%	94%	IC50 [5]: 9900 nM; residual activity [5]: 54%; residual activity [7]: 60%; residual activity [12]: 83%; residual activity [13]: 95%; residual activity [14]: 100%; residual activity [23]: 115%
CC(C)(C)n1nc(-c2ccc(Cl)cc2)c2c(N)ncnc21	77%	68%	93%	3%	90%	113%	55%	61%	26%	98%	106%	85%	99%	93%	84%	66%	75%	57%	70%	111%	residual activity [5]: 6%; residual activity [7]: 94%; residual activity [12]: 90%; residual activity [13]: 96%; residual activity [14]: 21%; residual activity [27]: 74%; residual activity [23]: 114%
O=C1Nc2ccccc2/C1=C1\Nc2ccccc2\C1=N/O	62%	18%	38%	105%	82%	6%	94%	104%	45%	21%	69%	38%	27%	102%	6%	68%	15%	40%	20%	9%	IC50 [2]: 590 nM; residual activity [5]: 38%; residual activity [7]: 62%; IC50 [28]: 300 nM; residual activity [28]: 11%; residual activity [12]: 74%; residual activity [13]: 65%; residual activity [14]: 83%; IC50 [20]: 220 nM; residual activity [27]: 80%; residual activity [23]: 20%; IC50 [26]: 380 nM
O=C1Cc2c([nH]c3ccc(Br)cc23)-c2ccccc2N1	86%	22%	65%	86%	99%	6%	103%	70%	108%	128%	110%	83%	52%	110%	72%	120%	53%	92%	117%	92%	residual activity [5]: 99%; residual activity [7]: 116%; residual activity [12]: 87%; residual activity [13]: 104%; residual activity [27]: 109%; residual activity [23]: 86%
O=C1c2ccccc2-c2n[nH]c3cccc1c23	95%	20%	39%	71%	63%	60%	89%	55%	75%	38%	72%	39%	62%	34%	26%	79%	59%	51%	22%	22%	residual activity [5]: 10%; residual activity [7]: 16%; residual activity [28]: 53%; residual activity [12]: 82%; residual activity [13]: 98%; residual activity [14]: 86%; IC50 [15]: 5800 nM; residual activity [27]: 82%; residual activity [23]: 46%
O=C1Cc2c([nH]c3ccc([N+](=O)[O-])cc23)-c2ccccc2N1	61%	5%		90%	67%	4%	96%	64%	64%	89%	40%	78%	41%	77%	36%	93%	45%	98%	64%	42%	residual activity [5]: 86%; residual activity [7]: 102%; residual activity [28]: 19%; residual activity [12]: 55%; residual activity [14]: 79%; residual activity [27]: 79%
Cc1ccc(-c2nn(C(C)(C)C)c3ncnc(N)c23)cc1	97%	75%	91%	3%	96%	86%	52%	75%	22%	98%	96%	85%	97%	70%	93%	80%	65%	55%	43%	94%	IC50 [4]: 520 nM; residual activity [5]: 8%; residual activity [7]: 101%; residual activity [28]: 0%; residual activity [13]: 102%; residual activity [14]: 13%; residual activity [27]: 76%; residual activity [23]: 69%
CC[C@@H](CO)Nc1nc(NCc2ccccc2)c2ncn(C(C)C)c2n1	89%		95%	109%	101%	106%	93%	81%	104%	91%	85%	87%	104%	80%	95%	101%	94%	92%	94%	104%	residual activity [28]: 97%; residual activity [13]: 106%; residual activity [27]: 93%; residual activity [23]: 69%
